Consider six compounds from paper PMC11417994, “Cyclohexanediamine Triazole (CHDT) Functionalization Enables Labeling of Target Molecules with Al^18F/^68Ga/^111In” (Bioconjugate Chemistry, 2024).

The Ki is the equilibrium dissociation constant of an inhibitor or competing ligand from its target. As a reminder, the Kd is the free concentration of one partner at which half of the binding sites on the other are occupied at equilibrium, for simple one-to-one binding. Read a low Kd as a tighter complex.

Data set [1] addresses PSMA. Further details: method as in PMID 22369515. To be noted: cited from earlier work.
The conditions of data set [2]: same conditions; cited from earlier work.
The target of data set [3] is T1, PSMA (Homo sapiens, UniProt Q04609).
T1 construct: Detection of endogenous PSMA expression in LNCaP and PC3 cells relative to β-actin expression by Western; host or cells: LNCaP human prostate carcinoma cells (monolayer, spheroids or Potter-Elvehjem homogenates)
In words: Saturation binding using LNCaP cell homogenates. As to the method:
The binding affinity of the nonlabeled CHDT-PSMA-1/2/3, PSMA-1007, PSMA-617, and KuE was assessed in competition binding assays using LNCaP cell homogenates (∼1 × 10^6 cells/mL using Potter-Elvehjem) and the radioligand [^177Lu]Lu-PSMA-617 (n = 5 for CHDT-PSMA-1; n = 4 for CHDT-PSMA-2/3; n = 2 for PSMA-1007; n = 8 for PSMA-617; n = 6 for KuE). […] The assays were performed in a final volume of 200 μL. The incubation was stopped by washing the homogenate with cold PBS four times using a filter (Whatman GF/C, 90 min presoaked in 0.3% polyethylenimine) in a cell harvester (Brandel, USA). The radioactivity bound to the filter was measured in a gamma counter. Filter binding was determined for adjacent samples without cell homogenate. […] The Kd value of [^177Lu]Lu-PSMA-617 was determined in saturation binding assays using LNCaP cell homogenates to be 15.2 (±2.1) nM. […]
Dissociations constants (Kd and Kd,int), as well as maximal binding capacities (Bmax and Bmax,int), were derived from specific binding data by nonlinear regression according to the model of “One site-specific binding” as implemented in GraphPad Prism 10. Protein content was determined using the bicinchoninic acid protein assay kit (Pierce, Thermo Scientific) to calculate the binding capacities in pmol/mg and for the time-depending internalization the internalized percent of administrated dose per μg protein (% AD/μg protein).

T1 sequence (Q04609 whole entry): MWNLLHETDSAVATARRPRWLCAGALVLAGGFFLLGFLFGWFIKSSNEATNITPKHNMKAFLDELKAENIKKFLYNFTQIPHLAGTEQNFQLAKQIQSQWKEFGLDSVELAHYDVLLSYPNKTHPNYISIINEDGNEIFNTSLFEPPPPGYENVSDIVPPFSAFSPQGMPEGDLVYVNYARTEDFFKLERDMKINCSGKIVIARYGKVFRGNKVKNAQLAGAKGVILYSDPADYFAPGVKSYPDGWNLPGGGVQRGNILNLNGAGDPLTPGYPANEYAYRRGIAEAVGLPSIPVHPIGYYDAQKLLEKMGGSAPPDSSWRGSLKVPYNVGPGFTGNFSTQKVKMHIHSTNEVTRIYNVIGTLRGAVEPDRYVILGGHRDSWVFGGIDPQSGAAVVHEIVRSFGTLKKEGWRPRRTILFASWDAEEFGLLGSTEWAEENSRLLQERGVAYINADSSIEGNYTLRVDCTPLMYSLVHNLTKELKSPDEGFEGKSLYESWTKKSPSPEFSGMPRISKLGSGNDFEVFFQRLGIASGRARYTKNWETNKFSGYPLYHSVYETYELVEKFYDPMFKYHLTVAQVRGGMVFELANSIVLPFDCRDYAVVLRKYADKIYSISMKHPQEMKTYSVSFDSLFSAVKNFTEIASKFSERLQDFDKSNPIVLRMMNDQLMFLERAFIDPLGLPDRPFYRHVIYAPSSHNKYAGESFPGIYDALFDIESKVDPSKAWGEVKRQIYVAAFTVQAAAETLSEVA

Take `O=C(O)CCc1ccc(O)c(CN(CCN(CC(=O)O)Cc2cc(CCC(=O)NCCCCCC(=O)NCCCC[C@H](NC(=O)N[C@@H](CCC(=O)O)C(=O)O)C(=O)O)ccc2O)CC(=O)O)c1` [PSMA-11]: the Ki at PSMA [1] was 12 nM.

`O=C(O)CN1CCCN(CC(=O)O)CCN(CC(=O)O)CCCN(CC(=O)O)CC1` [TETA]: in data set [2], the “64Cu-transchelation in human serum” value was “only minimal”.

As for [^177Lu]Lu-PSMA-617, on PSMA [3], the affinity, expressed as Kd, was 15.2 nM. In other words, the double-digit nanomolar range.

Take `O=C(O)CN1CCN(CC(=O)O)CCN(CC(=O)O)CCN(CC(=O)O)CC1` [DOTA]: the “64Cu-transchelation in human serum” value in data set [2] is recorded as “only minimal”.

On to `O=C(O)CN1CCN(CC(=O)O)CCN(CC(=O)O)CC1` [NOTA], for which, in data set [2], the “64Cu-transchelation in human serum” value was “only minimal”.

As for `NC12CNCCNCC(N)(CNCCNC1)CNCCNC2` [diamSar], the “64Cu-transchelation in human serum” value in data set [2] is given as “only minimal”.
